Results: US6160008A, “Pharmaceutical compositions comprising S-alkylisothiouronium derivatives” (priority 1996, dated 2000)
Entries after “also recorded” stand apart in the source; their conditions may differ.

Columns and labels:
[1] = test system: cardiovascular system of dogs; assay: Effect on the cardiovascular system of dogs (FIGS. 11-13); assay type: in vivo; details: i.v.
Protocol: In the following tests, the effect of S-ethylisothiouronium diethylphosphate was studied on the cardiovascular system of dogs. AP was measured by two methods: it was registered on the tail artery by means of a piezosensor (Ugo Bazile pressure gauge) and in the thigh artery by a catheter filled with heparin. Electrocardiogram was registered in three standard branches.
S-ethylisothiouronium diethylphosphate was injected at doses of 1 mg/kg (n=5), 5 mg/kg (n=18), and 100 mg/kg (n=8). […] The development of a bradycardiac effect was noted which started already on the first minutes after the injection, reaching on the average 25-30% of the initial level. Maximal bradycardiac value was observed on the 30th-40th minutes after the experiment started and maintained till the 60th minute of the observation.
Due to this fact the study was carried out separately for normotonics and hypotonics.

arterial blood pressure = assay: Influence of single intravenous injection on arterial blood pressure, heart rate and respiratory rate in anesthetized cats (Table 1, FIGS. 1-10); assay type: in vivo; details: 5 mg/kg i.v.
Protocol: Experiments were performed on 52 anesthetized (intraperitoneally with 45 mg/kg of sodium pentobarbital) cats of both genders with body mass of 2.8-4.2 kg. Arterial pressure was measured by a mercury pressure gauge; measurements were also performed by ECG. Simultaneously, the respiratory frequency was registered. The hypertensive effect was determined as percent increase relative to the initial level of systolic arterial pressure (SAP). The duration of observation was 1-3 hours; the heart rate (HR) was calculated on the basis of ECG.

[2] = test system: acute arterial hypotension, caused by prazosin; assay: Acute arterial hypotension caused by prazosin (Table 3); assay type: in vivo, cats; details: for AP / HF / Respiratory contraction frequency: 5 mg/kg i.v. after prazosin 1 mg/kg
Protocol: It was of interest to study the influence of S-ethylisothiouronium diethylphosphate the in case of hypotension caused by the injection of a known α1-adreno blocker, namely prazosin. Prazosin was injected singly intravenously at a dose of 1 mg/kg.

[3] = listed as S-ethylisothiuronium diethylphosphate

`CCSC(=N)N` [S-ethylisothiouronium diethylphosphate] was tested, and the Electrocardiogram ([1]; all doses) was “did not reveal any pathological changes”, the “Bradycardiac effect, relative to the initial level” value ([1]; dogs) was 25-30% and the Optimal dose ([1]; dogs) was 5 to 10 mg/kg. For the same compound, the “Hypertensive effect in words” value ([1]; dogs, all doses) was “does not cause secondary hypotension; also recorded: greater in hypotensive than in normotensive animals; also recorded: pronounced hypertensive effect at all the doses used”, the “Hypertensive effect in words” value ([1]; dogs, all doses, listed as S-ethylisothiouroniumdiethylphosphate) was “the hypertensive reaction in dogs with low arterial pressure is stronger and more prolonged” and the “Hypertensive activity, % (increase relative to the initial level of SAP)” value (arterial blood pressure) was 40%. For the same compound, the “Hypertensive effect in words” value (arterial blood pressure) was “one of the most active compounds; also recorded: most active compound”, the “RR (influence on respiratory rate)” value (arterial blood pressure) was “increases RR” and the “Time to achieve maximum effect” value (arterial blood pressure) was 2 min. For the same compound, the “Hypertensive activity (increase of SAP)” value (arterial blood pressure; given as "> SAP by", listed as S-ethylisothiuronium diethylphosphate) was 40 mm Hg, the Duration of effect (arterial blood pressure; [3]) was 1 to 1.5 h and the “Hypertensive activity, % (increase relative to the initial level of SAP)” value (arterial blood pressure; [3]) was 40%. For the same compound, the “Influence on HR” value (arterial blood pressure; [3]) was “Bradycardia”, the “RR (influence on respiratory rate)” value (arterial blood pressure; [3]) was “Increases” and the AP ([2]; 2 min) was 135.0 ± 5.6 mm Hg. The HF ([2]; 2 min) was 152.4 ± 9.4 per min, the Respiratory contraction frequency ([2]; 2 min) was 14.6 ± 3.9 min⁻¹ and the AP ([2]; 15 min) was 118.8 ± 10.3 mm Hg. For the same compound, the HF ([2]; 15 min) was 146.4 ± 5.6 per min, the Respiratory contraction frequency ([2]; 15 min) was 12.4 ± 3.0 min⁻¹ and the AP ([2]; 30 min) was 116.3 ± 4.8 mm Hg. For the same compound, the HF ([2]; 30 min) was 144.0 ± 5.0 per min, the Respiratory contraction frequency ([2]; 30 min) was 11.8 ± 2.3 min⁻¹ and the AP ([2]; 60 min) was 110.0 ± 7.4 mm Hg. The HF ([2]; 60 min) was 135.6 ± 7.0 per min, the Respiratory contraction frequency ([2]; 60 min) was 11.0 ± 1.0 min⁻¹ and the AP increase ([2]; 5 mg/kg i.v. after prazosin, 2nd minute) was 29 mm Hg. The “AP above the level on the 5th minute after blocker” value ([2]; 5 mg/kg i.v. after prazosin, 15th minute) was 11.8%, the “AP above the level on the 5th minute after blocker” value ([2]; 5 mg/kg i.v. after prazosin, 30th minute) was 9.4% and the “Effect under α1-adreno blockade in words” value ([2]; after prazosin) was “Statistically significant changes of HR and respiratory movement frequency were not observed; also recorded: increases AP also on the background of α1-adreno blockers though with a lower duration than without them; also recorded: retain its activity in conditions of alpha-adrenergic blockade”.
